# From PMC4279163, “Inhibitory Effect of b-AP15 on the 20S Proteasome” (Biomolecules, 2014)
# Where “and” joins values, the source holds several entries; their conditions need not be identical. Equal entries are not always repeated. Where two headings read alike, the source gives them in different places.
# Legend:
# [1] = biological target: T1, human 19S regulatory particles (Homo sapiens, UniProt P54578+Q9Y5K5); assay: 19S regulatory particle de-ubiquitinase assay (ub-AMC); format: biochemical; details: 19S 2.9 nM; ub-AMC 1 μM; read-out: IC50, deubiquitinase activities of the 19S regulatory particles
# T1 construct: purchased Boston Biochem
# Protocol: Figure 2 (a) b-AP15 inhibited the 19S regulatory particles. The activity of human 19S regulatory particles (Boston Biochem) was determined in the presence of the fluorogenic substrate ub-AMC and various concentrations of b-AP15 as indicated using a reported assay condition. RFU denotes the relative fluorescence units of the reactions; (b) Inhibitory effect of b-AP15 on the chymotrypsin-like activity of the 20S proteasome. BG in the figure denotes background.
# The de-ubiquitinase activities of the human 19S regulatory particles (proteasome) (Boston Biochem, Boston, MA, USA) were determined in the presence of the fluorogenic substrate ub-AMC (Boston Biochem) and various concentrations of b-AP15 using the reported assay condition. The reaction buffer used contained 25 mM HEPES, 50 mM NaCl, 10 mM MgCl2, 2 mM ATP, and 1 mM DDT. The human 19S regulatory particles and the substrate ub-AMC were used at a final concentration of 2.9 nM, and 1 μM, respectively. The proteolysis reaction rate was monitored using a BioTek fluorometer (Winooski, VT, USA).
# 19S regulatory particle = system: 19S regulatory particle; set-up: method as in PMID 22057347; details: 50 μM; cited from earlier work
# [2] = system: MelJuSo Ub-YFP reporter cell line; set-up: method as in PMID 22057347; details: MelJuSo Ub-YFP cells; cited from earlier work
# [3] = biological target: T2, 20S proteasome, chymotrypsin-like activity (Homo sapiens, UniProt P28074); assay: 20S proteasome assay, chymotrypsin-like activity (Suc-LLVY-AMC); format: biochemical; set-up: purchased Calbiochem; details: for IC50: Suc-LLVY-AMC 20 μM, mean ± SD, three assays
# Protocol: (§1) Proteasome assay kits were purchased from Calbiochem, San Diego, CA. The effect of the proteasome inhibitors on the 20S proteasome activities was assayed following the protocols provided by the manufacturer. The major components of the assay mixture are the human 20S proteasome, fluorogenic peptide substrates and a proteasome activator. […] The concentrations of the proteasome activators used, PA28, PALAME, and SDS were 2 μg/mL, 19 μM, and 0.03% (V/V), respectively.
# (§2) The trypsin-like and caspase-like activities of the 20S proteasome were determined using the fluorogenic substrates Bz-VGR-AMC (20 μM) and (Z)-LLEbNA (20 μM), respectively. Fluorescence generated from the proteolytic reaction in the presence of various concentrations of the inhibitors was measured using a BioTek fluorometer. […] The value of IC50 is expressed as mean ± standard deviation from three independent assays using CalcuSyn (Biosoft, Cambridge, UK).
# multiple myeloma = system: multiple myeloma; set-up: method as in PMID 24319254; details: human xenograft mouse model; cited from earlier work
# [4] = biological target: T3, human 20S proteasome, caspase-like activity (Homo sapiens, UniProt P28072); assay: 20S proteasome assay, caspase-like activity ((Z)-LLEbNA); format: biochemical
# T3 construct: purchased Calbiochem
# Protocol: as §1, §2
# [5] = system: proteasome of HeLa Ub^G76V-GFP cells; assay: Cell-based proteasome inhibition assay (Ub-GFP accumulation); details: 24 h
# Protocol: It was shown that b-AP15 at 50 μM inhibited the deubiquitination by the 19S regulatory particle, but not the 20S proteasome in in vitro enzymatic assays. […] HeLa Ub^G76V-GFP cells express ubiquitin-green fluorescent protein (Ub-GFP), which is efficiently degraded by the proteasome. HeLa Ub^G76V-GFP cells accumulate Ub-GFP in the presence of proteasome inhibitors. […] Some of the HeLa Ub^G76V-GFP cells turned green in the presence of b-AP15 at a concentration as low as 0.32 μM (Figure 1b). […] Ub-YFP was accumulated in the MelJuSo Ub-YFP cells at a b-AP15 concentration as low as 0.7 μM [12].
# Figure 1 b-AP15 inhibited the proteasome of HeLa ubiquitin-green fluorescent protein (Ub^G76V-GFP) cells. HeLa Ub^G76V-GFP cells were treated with b-AP15 at 0.95 μM (a,d); 0.32 μM (b,e), or no b-AP15 (c,f) for 24 h, where (a), (b), and (c) are fluorescence microscopic images; (d), (e), and (f) are regular phase contrast images of the cells.
# HeLa Ub^G76V-GFP cells (kindly provided by Nico P. Dantuma, Karolinska Institutet, Stockholm, Sweden) were cultured in DMEM medium supplemented with 10% fetal calf serum, 100 units/mL of penicillin, and 100 µg/mL of streptomycin. […] The green fluorescence emitted by the treated HeLa Ub^G76V-GFP cells was then observed and documented with a Nikon fluorescent microscopic system.
# [6] = biological target: T4, human 20S proteasome, trypsin-like activity (Homo sapiens, UniProt Q99436); assay: 20S proteasome assay, trypsin-like activity (Bz-VGR-AMC); format: biochemical; details: activator PA28; Bz-VGR-AMC 20 μM; read-out: IC50, trypsin-like activity of PA28-activated 20S proteasome
# T4 construct: purchased Calbiochem
# Protocol: as §1, §2
# [7] = biological target: T2, 20S proteasome, chymotrypsin-like activity; assay: HPLC analysis of the substrates and products of the 20S proteasome; format: biochemical; details: 0, 2.4, 9.6, 38 μM; PA28 11 μg/mL; 6 h, room temperature
# Description: b-AP15 is highly chromogenic with a conjugated π-bonding system that could potentially be quenching the emitted fluorescence from proteasome cleavage of the substrate. To eliminate the possible effect of quenching by b-AP15, we used HPLC to analyze the substrate and cleaved products, AMC (P1) and Suc-LLVY (P2), after the enzyme reactions. The ratio of P/S was used to express the relative amount of reaction product formation under the assay conditions, where P represents the products and S represents the substrate Suc-LLVY-AMC (S). […]
# Figure 3 Inhibition of the chymotrypsin-like activity of the 20S proteasome. The reaction products of the 20S proteasome, AMC (P1), Suc-LLVY (P2), and substrate Suc-LLVY-AMC (S) were analyzed by HPLC. P1/S and P2/S are the ratios of the reaction products and the substrate calculated from the area under the curve of the HPLC profiles.
# b-AP15 at various concentrations (0, 2.4, 9.6, and 38 μM) was incubated with the 20S proteasome (4.3 nM), substrate (Suc-LLVY-AMC, 0.2 mM), and PA28 (11 μg/mL) at room temperature for 6 h. […] The reaction products, AMC (P1), Suc-LLVY (P2), and substrate Suc-LLVY-AMC (S) in the filtrate were analyzed using reverse phase HPLC with a gradient of increasing acetonitrile/water ratio. […]
# 20S proteasome = system: 20S proteasome; set-up: method as in PMID 22057347; details: 50 μM; SDS as activator; cited from earlier work
smiles,measurement,setting,value
C=CC(=O)N1C/C(=C\c2ccc([N+](=O)[O-])cc2)C(=O)/C(=C/c2ccc([N+](=O)[O-])cc2)C1 [b-AP15],IC50,[1],15.2 µM
same,Inhibition of deubiquitination by the 19S regulatory particle,19S regulatory particle,inhibited
same,Lowest concentration at which Ub-YFP was accumulated,[2],0.7 µM
same,inhibition at 48 µM,"[3]; 48 μM, 0.03% SDS as activator, read-out: Inhibition of the chymotrypsin-like activity of the SDS-activated 20S proteasome",< 50%
same,IC50,"[3]; activator PA28 2 μg/mL, read-out: IC50, chymotrypsin-like activity of the 20S proteasome activated by PA28",18.1 ± 3.22 µM
same,IC50,"[3]; activator PALAME 19 μM, read-out: IC50, chymotrypsin-like activity of the 20S proteasome activated by PALAME",26 µM and 26.3 µM
same,IC50,"[3]; activator SDS 0.03%, read-out: IC50, chymotrypsin-like activity of the 20S proteasome activated by SDS",> 48 µM
same,Anti-multiple myeloma activity,multiple myeloma,anti-multiple myeloma activity
same,IC50,"[4]; activator PA28, (Z)-LLEbNA 20 μM, read-out: IC50, caspase-like activity of PA28-activated 20S proteasome",> 48 µM
same,Effect on the caspase-like activity,"[4]; up to 48 μM, PA28-activated",did not significantly affect
same,Accumulation of Ub^G76V-GFP and/or GFP in cells,[5]; 0.95 μM,accumulation of Ub^G76V-GFP and/or GFP in majority of the cells
same,Lowest concentration at which some cells turned green,[5]; fluorescence microscopy,0.32 µM
same,IC50,[6],40.6 ± 5.23 µM
same,Formation of the two cleaved products AMC (P1) and Suc-LLVY (P2) by HPLC,[7],inhibited the formation of the two cleaved products in a dose dependent manner
same,Inhibition of the 20S proteasome,20S proteasome,did not inhibit
